#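 Where inhibition never reached the appropriate level, the endpoint shown equals the highest concentration tested. Otherwise, values were interpolated linearly from a five-concentration, 48-hour dose response in 96-well plates. The concentration for 50% growth inhibition is given as GI50.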 Activity calls are given as the source filed them. Cut-off read from the data, not from the text of the source: active = GI50 up to about 1.1 µM and inactive = higher.
# Key:
# Assay in all cases: growth of human tumour cells (NCI), 48 h
# 786-0 = system: 786-0
# A498 = system: A498
# A549 = system: A549
# ACHN = system: ACHN
# BT-549 = system: BT-549
# CAKI-1 = system: CAKI-1
# CCRF-CEM = system: CCRF-CEM
# COLO 205 = system: COLO 205
# DU-145 = system: DU-145
# EKVX = system: EKVX
# HCT-116 = system: HCT-116
# HCT-15 = system: HCT-15
# HL-60 = system: HL-60
# HOP-62 = system: HOP-62
# HOP-92 = system: HOP-92
# HT-29 = system: HT-29
# Hs-578T = system: Hs-578T
# IGROV-1 = system: IGROV-1
# K562 = system: K562
# KM12 = system: KM12
# LOX IMVI = system: LOX IMVI
# M14 = system: M14
# MCF7 = system: MCF7
# MDA-MB-231 = system: MDA-MB-231
# MDA-MB-435 = system: MDA-MB-435
# MDA-N = system: MDA-N
# MOLT-4 = system: MOLT-4
# Malme-3M = system: Malme-3M
# NCI-H226 = system: NCI-H226
# NCI-H23 = system: NCI-H23
# NCI-H460 = system: NCI-H460
# NCI-H522 = system: NCI-H522
# NCI/ADR-RES = system: NCI/ADR-RES
# OVCAR-3 = system: OVCAR-3
# OVCAR-4 = system: OVCAR-4
# OVCAR-5 = system: OVCAR-5
# OVCAR-8 = system: OVCAR-8
# PC-3 = system: PC-3
# RPMI-8226 = system: RPMI-8226
# RXF 393 = system: RXF 393
# SF-268 = system: SF-268
# SF-295 = system: SF-295
# SF-539 = system: SF-539
# SK-MEL-28 = system: SK-MEL-28
# SK-MEL-2 = system: SK-MEL-2
# SK-MEL-5 = system: SK-MEL-5
# SK-OV-3 = system: SK-OV-3
# SN12C = system: SN12C
# SNB-19 = system: SNB-19
# SNB-75 = system: SNB-75
# SR = system: SR
# SW-620 = system: SW-620
# T47D = system: T47D
# TK-10 = system: TK-10
# U-251 = system: U-251
# UACC-257 = system: UACC-257
# UACC-62 = system: UACC-62
# UO-31 = system: UO-31
# HCC 2998 = system: HCC 2998
smiles,measurement,setting,value
C[N+](CCCl)(CCCl)Cc1cccc2cccc([N+](=O)[O-])c12,GI50,786-0,> 100 µM (inactive)
same,GI50,A498,> 100 µM (inactive)
same,GI50,A549,97.3 µM (inactive)
same,GI50,ACHN,44.5 µM (inactive)
same,GI50,BT-549,> 100 µM (inactive)
same,GI50,CAKI-1,31 µM (inactive)
same,GI50,CCRF-CEM,73.6 µM (inactive)
same,GI50,COLO 205,25.8 µM (inactive)
same,GI50,DU-145,> 100 µM (inactive)
same,GI50,EKVX,> 100 µM (inactive)
same,GI50,HCT-116,> 100 µM (inactive)
same,GI50,HCT-15,> 100 µM
same,GI50,HL-60,45.1 µM (inactive)
same,GI50,HOP-62,89.1 µM (inactive)
same,GI50,HOP-92,> 100 µM (inactive)
same,GI50,HT-29,55.8 µM (inactive)
same,GI50,Hs-578T,> 100 µM (inactive)
same,GI50,IGROV-1,56.4 µM (inactive)
same,GI50,K562,> 100 µM (inactive)
same,GI50,KM12,> 100 µM (inactive)
same,GI50,LOX IMVI,48.1 µM (inactive)
same,GI50,M14,> 100 µM (inactive)
same,GI50,MCF7,38.2 µM (inactive)
same,GI50,MDA-MB-231,> 100 µM (inactive)
same,GI50,MDA-MB-435,> 100 µM (inactive)
same,GI50,MDA-N,> 100 µM (inactive)
same,GI50,MOLT-4,60.5 µM (inactive)
same,GI50,Malme-3M,81.1 µM (inactive)
same,GI50,NCI-H226,> 100 µM (inactive)
same,GI50,NCI-H23,30 µM (inactive)
same,GI50,NCI-H460,53.8 µM (inactive)
same,GI50,NCI-H522,73.1 µM (inactive)
same,GI50,NCI/ADR-RES,> 100 µM (inactive)
same,GI50,OVCAR-3,44.7 µM (inactive)
same,GI50,OVCAR-4,57.7 µM (inactive)
same,GI50,OVCAR-5,> 100 µM (inactive)
same,GI50,OVCAR-8,43.5 µM (inactive)
same,GI50,PC-3,85.3 µM (inactive)
same,GI50,RPMI-8226,40.5 µM (inactive)
same,GI50,RXF 393,> 100 µM (inactive)
same,GI50,SF-268,> 100 µM (inactive)
same,GI50,SF-295,> 100 µM (inactive)
same,GI50,SF-539,94.8 µM (inactive)
same,GI50,SK-MEL-28,> 100 µM (inactive)
same,GI50,SK-MEL-2,> 100 µM (inactive)
same,GI50,SK-MEL-5,53.3 µM (inactive)
same,GI50,SK-OV-3,> 100 µM (inactive)
same,GI50,SN12C,45.5 µM (inactive)
same,GI50,SNB-19,75.2 µM (inactive)
same,GI50,SNB-75,> 100 µM (inactive)
same,GI50,SR,5.83 µM (inactive)
same,GI50,SW-620,> 100 µM (inactive)
same,GI50,T47D,42.7 µM (inactive)
same,GI50,TK-10,> 100 µM (inactive)
same,GI50,U-251,> 100 µM (inactive)
same,GI50,UACC-257,37.2 µM (inactive)
same,GI50,UACC-62,> 100 µM (inactive)
same,GI50,UO-31,> 100 µM (inactive)
CC(C)(C)OC(=O)N1C/C=C\C(=O)C2(OCCO2)c2ccccc21,GI50,786-0,23.9 µM (inactive)
same,GI50,A498,> 100 µM (inactive)
same,GI50,A549,35.2 µM (inactive)
same,GI50,ACHN,34.2 µM (inactive)
same,GI50,BT-549,22.5 µM (inactive)
same,GI50,CAKI-1,33.7 µM (inactive)
same,GI50,CCRF-CEM,25.4 µM (inactive)
same,GI50,COLO 205,17.7 µM (inactive)
same,GI50,DU-145,28.6 µM (inactive)
same,GI50,EKVX,31.3 µM (inactive)
same,GI50,HCT-116,17.4 µM (inactive)
same,GI50,HCT-15,31.7 µM
same,GI50,HOP-62,48.9 µM (inactive)
same,GI50,HOP-92,15.9 µM (inactive)
same,GI50,HT-29,19.2 µM (inactive)
same,GI50,Hs-578T,45 µM (inactive)
same,GI50,IGROV-1,16.9 µM (inactive)
same,GI50,K562,22 µM (inactive)
same,GI50,KM12,31.6 µM (inactive)
same,GI50,LOX IMVI,16.7 µM (inactive)
same,GI50,M14,20.7 µM (inactive)
same,GI50,MCF7,31.4 µM (inactive)
same,GI50,MDA-MB-231,19.6 µM (inactive)
same,GI50,MDA-MB-435,17.7 µM (inactive)
same,GI50,MDA-N,20.4 µM (inactive)
same,GI50,MOLT-4,19.5 µM (inactive)
same,GI50,Malme-3M,22.7 µM (inactive)
same,GI50,NCI-H226,19.1 µM (inactive)
same,GI50,NCI-H23,36.1 µM (inactive)
same,GI50,NCI-H460,22.7 µM (inactive)
same,GI50,NCI-H522,24 µM (inactive)
same,GI50,NCI/ADR-RES,47.5 µM (inactive)
same,GI50,OVCAR-3,15.7 µM (inactive)
same,GI50,OVCAR-4,28.4 µM (inactive)
same,GI50,OVCAR-5,> 100 µM (inactive)
same,GI50,OVCAR-8,24.9 µM (inactive)
same,GI50,PC-3,29.4 µM (inactive)
same,GI50,RPMI-8226,20.4 µM (inactive)
same,GI50,RXF 393,21.2 µM (inactive)
same,GI50,SF-268,34 µM (inactive)
same,GI50,SF-295,26.4 µM (inactive)
same,GI50,SF-539,22.1 µM (inactive)
same,GI50,SK-MEL-28,22.5 µM (inactive)
same,GI50,SK-MEL-2,24.5 µM (inactive)
same,GI50,SK-MEL-5,16.5 µM (inactive)
same,GI50,SK-OV-3,37.3 µM (inactive)
same,GI50,SN12C,26.5 µM (inactive)
same,GI50,SNB-19,35.5 µM (inactive)
same,GI50,SNB-75,28.2 µM (inactive)
same,GI50,SR,25.8 µM (inactive)
same,GI50,SW-620,25.1 µM (inactive)
same,GI50,T47D,21.3 µM (inactive)
same,GI50,TK-10,24.3 µM (inactive)
same,GI50,U-251,29.9 µM (inactive)
same,GI50,UACC-257,20.8 µM (inactive)
same,GI50,UO-31,17.7 µM (inactive)
COc1ccccc1NCc1nnc(CCCCCCCCc2nnc(CNc3ccccc3OC)o2)o1,GI50,786-0,> 100 µM (inactive)
same,GI50,A498,> 100 µM (inactive)
same,GI50,A549,> 100 µM (inactive)
same,GI50,ACHN,> 100 µM (inactive)
same,GI50,BT-549,> 100 µM (inactive)
same,GI50,CAKI-1,> 100 µM (inactive)
same,GI50,CCRF-CEM,> 100 µM (inactive)
same,GI50,COLO 205,> 100 µM (inactive)
same,GI50,DU-145,> 100 µM (inactive)
same,GI50,EKVX,> 100 µM (inactive)
same,GI50,HCC 2998,> 100 µM (inactive)
same,GI50,HCT-116,> 100 µM (inactive)
same,GI50,HCT-15,> 100 µM
same,GI50,HOP-62,> 100 µM (inactive)
same,GI50,HOP-92,> 100 µM (inactive)
same,GI50,HT-29,> 100 µM (inactive)
same,GI50,Hs-578T,> 100 µM (inactive)
same,GI50,K562,> 100 µM (inactive)
same,GI50,KM12,> 100 µM (inactive)
same,GI50,LOX IMVI,> 100 µM (inactive)
same,GI50,M14,> 100 µM (inactive)
same,GI50,MCF7,> 100 µM (inactive)
same,GI50,MDA-MB-231,> 100 µM (inactive)
same,GI50,MDA-MB-435,> 100 µM (inactive)
same,GI50,MDA-N,> 100 µM (inactive)
same,GI50,MOLT-4,> 100 µM (inactive)
same,GI50,Malme-3M,> 100 µM (inactive)
same,GI50,NCI-H23,> 100 µM (inactive)
same,GI50,NCI-H460,> 100 µM (inactive)
same,GI50,NCI-H522,> 100 µM (inactive)
same,GI50,NCI/ADR-RES,> 100 µM (inactive)
same,GI50,OVCAR-3,> 100 µM (inactive)
same,GI50,OVCAR-4,> 100 µM (inactive)
same,GI50,OVCAR-5,> 100 µM (inactive)
same,GI50,OVCAR-8,> 100 µM (inactive)
same,GI50,PC-3,> 100 µM (inactive)
same,GI50,RPMI-8226,> 100 µM (inactive)
same,GI50,RXF 393,> 100 µM (inactive)
same,GI50,SF-268,> 100 µM (inactive)
same,GI50,SF-295,> 100 µM (inactive)
same,GI50,SK-MEL-2,> 100 µM (inactive)
same,GI50,SK-MEL-5,> 100 µM (inactive)
same,GI50,SK-OV-3,> 100 µM (inactive)
same,GI50,SN12C,> 100 µM (inactive)
same,GI50,SNB-19,> 100 µM (inactive)
same,GI50,SNB-75,> 100 µM (inactive)
same,GI50,SR,> 100 µM (inactive)
same,GI50,T47D,> 100 µM (inactive)
same,GI50,TK-10,> 100 µM (inactive)
same,GI50,U-251,> 100 µM (inactive)
same,GI50,UACC-257,> 100 µM (inactive)
same,GI50,UACC-62,> 100 µM (inactive)
same,GI50,UO-31,> 100 µM (inactive)
